The source of these data is patent US7858617B2, “2-oxy-benzoxazinone derivatives for the treatment of obesity” (Norgine B.V., priority 1999, dated 2010).

Type in all cases: biochemical
For one test, the target named is T1, Porcine trypsin (Sus scrofa, UniProt P00761).
T1 construct: purchased Boehringer
The experiment in a line: Measurement of trypsin activity. Conditions: at 500 nM; read-out: inhibited % of the trypsin activity. The procedure:
Measurement of Trypsin Activity
Porcine trypsin (Boehringer) was dissolved at a concentration of 1 mg/ml in 100 mM MOPS (3-[N-Morpholino]propanesulphonic acid) pH 7.3 containing 2 mM CaCl2. Prior to use, the enzyme was diluted 500 times to give a final concentration of 2 μg/ml.
Selected compounds were routinely stored as 5 mM stock solutions dissolved in DMSO (Dimethylsulphoxide) at −20° C. For the assay, aliquots were defrosted and a series of dilutions (×100, ×200, ×1,000, ×2,000, ×10,000, ×20,000 and ×100,000) made in 100 mM MOPS pH 7.3 containing 2 mM CaCl2. The substrate Bz-Phe-Val-Arg-pNA (Benzoyl-phenylalanyl-valyl-arginine-p-nitroanilide) was dissolved in DMSO to give a 10 mM solution. Immediately prior to use, the substrate was diluted to 0.3 mM (30 μl/ml) in 100 mM MOPS containing […].
The assay was set up in triplicate in a 96 well ELISA plate. 10 μl 2 μg/ml trypsin, 26 μl diluted inhibitor and 190 μl substrate were added sequentially. The plates were then incubated at 37° C. in a BioRad Benchmark Microplate Reader. The rate of release of p-nitroaniline was measured at […] over 10 minutes relative to that of the enzyme without inhibitor.

For another test, the target named is T2, human pancreatic lipase (Homo sapiens, UniProt P16233).
T2 sequence (P16233 17-465): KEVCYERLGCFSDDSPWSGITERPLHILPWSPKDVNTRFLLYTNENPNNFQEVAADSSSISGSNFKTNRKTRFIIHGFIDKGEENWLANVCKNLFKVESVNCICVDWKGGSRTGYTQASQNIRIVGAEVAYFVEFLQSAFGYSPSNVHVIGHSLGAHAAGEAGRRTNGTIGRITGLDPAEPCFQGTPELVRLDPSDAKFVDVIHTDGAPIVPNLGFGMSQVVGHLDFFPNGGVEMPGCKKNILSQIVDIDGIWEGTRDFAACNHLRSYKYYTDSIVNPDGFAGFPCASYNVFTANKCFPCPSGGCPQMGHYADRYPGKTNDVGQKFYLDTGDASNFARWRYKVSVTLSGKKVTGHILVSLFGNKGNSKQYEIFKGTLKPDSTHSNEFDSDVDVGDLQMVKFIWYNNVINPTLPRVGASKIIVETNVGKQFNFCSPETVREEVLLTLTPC
As to the kind of experiment: Lipase activity, quinine diimine dye calorimetric assay (Sigma Lipase-PS). The following applies: at 500 nM; read-out: inhibited % of the pancreatic lipase activity. The protocol:
Measurement of Lipase Activity Using a Quinine Diimine Dye Calorimetric Assay
The inhibitory activity of the selected compounds to pancreatic lipase was measured in the following assay available from Sigma Ltd (Lipase-PS™, catalog number 805-A):
The glycerol released from the action of pancreatic and monoglyceride lipase was oxidised to release H2O2. The peroxidase reaction step then produces a quinine dye which is pink in colour and absorbs light at a wavelength of 550 nm.
Individual test compounds were dissolved in DMSO (dimethyl sulphoxide) at 10 mM. DMSO was used to avoid any problems with compounds being water-insoluble. For individual compounds, the IC50 (concentration at which lipase activity is inhibited to one half of the maximum) was calculated by measuring the inhibitory activity from log-dose response curves using a range of inhibitor concentrations.
A range of compounds was assayed in the quinine diimine dye calorimetric assay which provides a rapid method to measure lipase inhibitory activity.

Another test deals with T3, Bovine Chymotrypsin (Bos taurus, UniProt P00766).
T3 construct: purchased Sigma C4129
As to the kind of experiment: Measurement of chymotrypsin activity. Conditions: at 500 nM; read-out: inhibited % of the chymotrypsin activity. The procedure: Measurement of Chymotrypsin Activity
Bovine Chymotrypsin (Sigma Type 11 Cat. No. C4129) was dissolved at a concentration of 1 mg/ml in 100 mM Tris pH 7.8. Prior to use, the enzyme was diluted 20 fold immediately before use, with the same buffer.
Selected compounds were routinely stored as 5 mM stock solutions dissolved in DMSO (Dimethylsulphoxide) at −20° C. For the assay, aliquots were defrosted and a series of dilutions (×20, ×100, ×200, ×1,000, ×2,000, ×10,000, ×20,000 and ×100,000) made in 100 mM Tris pH 7.8. The substrate H-Ala-Ala-Phe-p-nitroanilide (H-alanyl-alanyl-phenylalanine-p-nitroanilide) (Bachem Cat. No. L-1095) was dissolved in DMSO to give a 10 mM stock and stored at 4° C. until use. Immediately prior to use, the substrate was diluted to 0.3 mM final concentration (30 μl/ml) just before use.
The assay was set up in triplicate in a 96 well ELISA plate. 10 μl 50 μg/ml chymotrypsin, 50 μl diluted inhibitor and 190 μl substrate were added sequentially. The plates were then incubated at 37° C. in a BioRad Benchmark Microplate Reader. The rate of release of p-nitroaniline was measured at […] over 10 minutes relative to that of the enzyme without inhibitor.

T1 sequence (P00761 9-231): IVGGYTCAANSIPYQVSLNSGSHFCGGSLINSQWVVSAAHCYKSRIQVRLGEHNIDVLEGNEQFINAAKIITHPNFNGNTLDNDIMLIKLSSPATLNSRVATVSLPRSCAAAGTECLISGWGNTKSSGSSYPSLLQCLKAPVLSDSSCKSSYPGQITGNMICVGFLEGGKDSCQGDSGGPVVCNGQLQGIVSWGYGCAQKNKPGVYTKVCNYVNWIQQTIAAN

Take `CCCCCCCCCCCCCCCCOc1nc2ccc(C)cc2c(=O)o1` [Compound 18, 2-Hexadecyloxy-6-methyl-4H-3,1-benzoxazin-4-one]: the inhibition at 0.5 µM on Porcine trypsin came out at 4%; on human pancreatic lipase it was 98.7%; at Bovine Chymotrypsin, 12.5%.
